Data on twelve compounds can be found in article PMC4894409 (Scientific Reports, 2015).

A word on the Emax: it is the size of the effect at its maximum, as opposed to the concentration needed.

Where a name gives a salt, the structure may show the parent alone. Read-outs that look alike come from different tables or passages of the source.

For test [1], the system named is mice. As to the kind of experiment: FS test after AMPT, PCPA, PRAZ or WAY pretreatment (mechanism of antidepressant-like effect of D1). It counts as in vivo, Male Swiss mice. The conditions noted are these: AMPT 100, PCPA 100, PRAZ 1 or WAY 0.3 mg/kg i.p. + Vehicle versus SAL + Vehicle, p > 0.05. On the procedure:
Mice were pretreated (i.p) with saline solution or AMPT 100 mg/kg (catecholamine depletor) 4 h prior to the oral administration of vehicle 10 mL/kg or D1 5 mg/kg. […] In a separate experiment, pretreatment (i.p) of mice with saline solution or PCPA 100 mg/kg (serotonin depletor) for four consecutive days prior to oral administration of vehicle or D1 5 mg/kg was used to investigate effect of serotonin depletion on antidepressant-like activity of this OAD. […] In all the four experiments, oral administration of vehicle or D1 5 mg/kg was followed by FS test (60 min interval between p.o. treatment and behavioural testing).

Test [2] relates to dopamine, noradrenaline and serotonin levels. The conditions noted are these: cited from earlier work.
For test [3], the target named is T1, 5-HT1A receptor (Mus musculus, UniProt Q64264).
T1 construct: The hippocampi of mice were dissected and homogenized in 5 volumes of ice-cold buffer; from tissue; host or cells: mouse hippocampus membranes
T1 sequence (Q64264 1-421): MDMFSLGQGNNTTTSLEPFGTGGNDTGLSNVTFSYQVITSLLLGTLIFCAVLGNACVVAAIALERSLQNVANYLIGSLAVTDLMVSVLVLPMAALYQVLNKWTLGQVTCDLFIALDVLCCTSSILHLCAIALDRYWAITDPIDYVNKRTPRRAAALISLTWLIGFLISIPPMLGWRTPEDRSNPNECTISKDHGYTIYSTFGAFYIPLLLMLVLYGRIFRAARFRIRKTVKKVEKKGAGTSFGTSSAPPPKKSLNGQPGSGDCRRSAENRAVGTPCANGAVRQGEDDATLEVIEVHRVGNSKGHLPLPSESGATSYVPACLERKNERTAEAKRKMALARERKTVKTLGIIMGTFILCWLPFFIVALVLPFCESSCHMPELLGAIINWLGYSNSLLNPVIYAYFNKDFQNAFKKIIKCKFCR
Description: [35S]GTPγS binding to mice hippocampal membranes. The conditions noted are these: for Emax: read-out: Intrinsic activity (Emax ± SEM in %). It counts as biochemical. As to the method: The hippocampi of mice were dissected and homogenized in 5 volumes of ice-cold buffer (25 mM Tris-HCl, 0.5 mM dithiothreitol, and 0.5 mM EGTA, pH 7.4). The homogenate was centrifuged (1,000 × g for 5 min at 4 °C) and the resultant supernatant was removed. The remaining pellet was resuspended in buffer, homogenized, and centrifuged. The two supernatants obtained were combined and centrifuged at […] at 4 °C and the pellets were resuspended in membrane preparation buffer. The volumes were adjusted prior to the determination of protein concentration by Bradford method[56] and stored at −80 °C until required. […] The reactions were initiated by the addition of 25 μl [^35S]-GTPγS, followed by a 20 min incubation at 20 °C. The reactions were terminated by rapid filtration. The filters were placed in liquid scintillation cocktail in counting vials. The liquid scintillation spectroscopy was used to measure the radioactivity bound to the filter paper after 10 hour.
(GTPγS is a poorly hydrolysed GTP analogue; its binding reports G protein activation.)

Test [4] concerns mice. Description: Forced swimming (FS) test. It counts as in vivo, Male Swiss mice. On the procedure:
(§1) Male Swiss mice (weighing between 25–30 g; 6–8 weeks old), provided by Central Animal House of the Federal University of Goiás, were used in all behavioural models. The experimental animals were kept in an intra-laboratory facility cage (32 × 18 × 16 cm) under controlled environmental conditions (23 ± 1 °C, 12 hr light-dark cycle) with access to food and water ad libitum. The experimental protocols (number 104/08) were approved by Ethical Committee of Federal University of Goiás in accordance to the international laws on the care and use of laboratory animals.
In the FS model, mice were randomly divided into 5 groups [control (vehicle), 3 different doses of OAD and IMI]. Mice were exposed to a modified version of FS test[48] after oral administration of vehicle, OAD (5, 10 or 20 mg/kg) or IMI 15 mg/kg. FS apparatus is a cylindrical water container (42 cm in height, 18 cm in diameter) filled with water up to 30 cm (total volume ( [drawing 1] of 7635.06 cm^3 at 24 ± 2 °C). In this model, the initial escape-directed behaviour like swimming and climbing by mouse are generally followed with a relatively passive and immobile posture. The container was cleaned with 10% ethanol solution prior to the exposure of naïve mouse. This test session (6-min duration) was videotaped and the swimming and immobility time was later scored and analyzed.

The subject of test [5] is mice. Description: Open field (OF) test. The format is in vivo, Male Swiss mice. The following applies: for other parameters of the OF test: 5, 10, 20 mg/kg p.o., parameters not named as changed, p > 0.05. On the procedure: as §1
In the OF, animals were randomly divided into six groups [control (vehicle), 3 different doses of OAD, DZP 1 or 5 mg/kg]. Animals were treated with vehicle, OAD (5, 10 or 20 mg/kg, p.o), DZP (1 or 5 mg/kg, p.o) as described in our previous work[7][49], and placed in a circular open field [base area ( [drawing 2] ) = 62.80 cm^2 which is divided into 8 equal sectors enclosed in a 50 cm high wooden wall]. The test session (5-min duration) was videotaped in a sound-proof experimental room. Parameters like total crossing, freezing time, number of grooming and rearing activity, crossing at the centre and time spent at the centre of the open field were observed and scored.

For test [6] the following is noted: previous study; cited from earlier work.
[7] abbreviates: 100 mg/kg i.p. for four consecutive days.
Where [8] appears, read: 20 mg/kg p.o., vs vehicle, p < 0.05.

As to `N[C@@H](Cc1ccc(Cl)cc1)C(=O)O` (racemic) [PCPA, p-chlorophenylalanine], the “animal behaviour (swimming time) after pretreatment prior to vehicle” value (from here on “animal behaviour (swimming time)”) in test [1] is reported as “did not alter animal behaviour”. Further, in test [2] (setting [7]), the “depletion of endogenous serotonin content” value is reported as “about 60%” and the “noradrenaline or dopamine levels” value was “without altering”.

In the case of `CC(N)(Cc1ccc(O)cc1)C(=O)O` (stereo not drawn) [AMPT, α-methyl-p-tyrosine], in test [1], the “animal behaviour (swimming time)” value is given as “did not alter animal behaviour”. In test [2] (mice), the levels of serotonin entry is recorded as “without affecting” and the “reduction of noradrenaline levels” value is on record as 53%. Further, the “reduction of dopamine levels” value in test [2] (mice, tyrosine hydroxylase inhibitor) is on record as 57%.

In the case of `CCCN(CCC)C1CCc2cccc(O)c2C1` (single isomer, unassigned; (+)) [(+) 8-OH-DPAT, 8-OH-DPAT], in test [3], the EC50 was 158 nM and the Emax was found to be 94 ± 2%.

In the case of `C=C(C)C(=O)O[C@H]1CC[C@]2(C)[C@H]3CC=C4[C@@H]5CC(C)(C)CC[C@]5(C(=O)O)CC[C@@]4(C)[C@]3(C)CC[C@H]2C1(C)C` [D2, Oleanolic acid methacrylate], in test [4] (setting [8]), the “immobility time in the FS test” value is “reduction” and the “swimming time in the FS test” value is recorded as “significant increase”. Further, in test [5] (20 mg/kg p.o., vs vehicle), the “total crossing in the OF” value is given as “increase”. Besides, the “other parameters of the OF test” value in test [5] is “not altered”. Further, the “time spent at the centre of the OF” value in test [5] (5, 10 and 20 mg/kg p.o., vs vehicle) is on record as “increase”. Besides, the “crossing at the centre of the OF” value in test [5] (10 and 20 mg/kg p.o., vs vehicle) is listed as “increase”.

For the compound `O=C1CC2(CCCC2)CC(=O)N1CCCCN1CCN(c2ncccn2)CC1` [Buspirone, buspirone], the EC50 in test [3] (mice hippocampal membranes, read-out: Agonist potency (pEC50 ± SEM) (converted)) was 251 nM. Further, in test [3] (percentage of that produced by 10 μM (+)8-OH-DPAT), the maximum response (Emax) was 33 ± 1%.

Turning to `COc1cc2nc(N3CCN(C(=O)c4ccco4)CC3)nc(N)c2cc1OC` [PRAZ, prazosin, reference compound], the “animal behaviour (swimming time)” value in test [1] was “did not alter animal behaviour”.

Take `CN(C)CCCN1c2ccccc2CCc2ccccc21` [IMI, imipramine, reference compound]: in test [4] (15 mg/kg p.o.), the “effect in FS test” value was “antidepressant-like effect”.

`CN1C(=O)CN=C(c2ccccc2)c2cc(Cl)ccc21` [DZP, Diazepam, reference compound]: the “effect in the OF test” value in test [5] (1 mg/kg p.o.) is given as “anxiolytic”; in test [5] (5 mg/kg p.o.), “sedative like effect”.

For `CC1(C)CC[C@]2(C(=O)O)CC[C@]3(C)C(=CC[C@@H]4[C@@]5(C)CC[C@H](O)C(C)(C)[C@@H]5CC[C@]43C)[C@@H]2C1` [OA, Oleanolic acid], in test [6], the “dependence of antidepressant-like effect on MAO activity” value is recorded as “independent of MAO activity”; the “effect of PCPA, AMPT, NAN, PRAZ and WAY100635 on antidepressant-like effect” value is recorded as “blockade”.

Take Oleanolic acid ethyl fumarate [D4]: in test [4] (setting [8]), the “swimming time in the FS test” value is recorded as “significant reduction”. Moreover, the “immobility time in the FS test” value in test [4] (5, 10, 20 mg/kg p.o., ANOVA) is reported as “without changes”. Further, in test [5] (20 mg/kg p.o., vs vehicle), the “freezing time in the OF” value is “increase” and the “total crossing in the OF” value is listed as “reduction”.

As for `COC(=O)/C=C/C(=O)O[C@H]1CC[C@]2(C)[C@H]3CC=C4[C@@H]5CC(C)(C)CC[C@]5(C(=O)O)CC[C@@]4(C)[C@]3(C)CC[C@H]2C1(C)C` [D3, Oleanolic acid methyl fumarate], in test [4] (5, 10, 20 mg/kg p.o., ANOVA), the “immobility time in the FS test” value was “did not elicit significant effect” and the “swimming time in the FS test” value is “did not elicit significant effect”. Besides, the “number of grooming in the OF” value in test [5] (10 mg/kg p.o., vs vehicle) is “reduction”. Also, in test [5] (20 mg/kg p.o., vs vehicle), the “freezing time in the OF” value is reported as “increase” and the “time spent at the centre of the OF” value is recorded as “increase”. Moreover, the “other parameters of the OF test” value in test [5] is listed as “not altered”.

With `COc1ccccc1N1CCN(CCN(C(=O)C2CCCCC2)c2ccccn2)CC1` [WAY, N-{2-[4-(2-methoxyphenyl)-1-piperazinyl]ethyl}-N-2-pyridinylcyclohexane carboxamide, reference compound], the “animal behaviour (swimming time)” value in test [1] was “did not alter animal behaviour”.
